Here are results for 4 compounds from article PMC4945863, “Dual thio-digalactoside-binding modes of human galectins as the structural basis for the design of potent and selective inhibitors” (Scientific Reports, 2016).

For assay [1], the target named is galectin-3. The conditions noted are these: cited from earlier work.
For a further assay, the target named is T1, galectin-1 (Homo sapiens, UniProt P09382).
T1 construct: full-length galectins-1 (residues 1-135); 6xHis; made in house; host or cells: Escherichia coli BL21 (DE3)
T1 sequence (P09382 whole entry, the tested form may be a part): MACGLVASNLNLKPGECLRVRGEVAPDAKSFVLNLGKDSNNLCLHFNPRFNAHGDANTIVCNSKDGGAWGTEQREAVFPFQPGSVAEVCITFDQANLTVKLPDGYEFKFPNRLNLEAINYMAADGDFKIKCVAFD
Kind of assay: Isothermal titration calorimetry (ITC), galectin-1. The format is binding. The procedure:
(§1) Human galectins-1, -3CRD and -7 were produced in E. coli according to previous studies.
(§2) Samples for use in ITC were diluted to appropriate concentrations in dialysate buffer (25 mM Tris-HCl pH 8.0, 300 mM NaCl and 5 mM β-mercaptoethanol) saved from the ultrafiltration step. All samples were filtered with 0.22 μm cutoff filters (Millipore) and extensively degassed with stirring prior to use. […] To avoid heating effects due to differing concentration of DMSO in the injectant and protein solutions, 5% DMSO was added to the protein. Software provided by Microcal was used for the curve fitting of the experimental data as well as for calculation of the thermodynamic data. Specifically, all ITC data were corrected for the heat of dilution of the titrant by subtracting the excess heats at high molar ratios of ligands to galectins. Binding stoichiometry, enthalpy and equilibrium association constants were determined by fitting the corrected data to a bimolecular interaction model and summarised in Table 1.
(§3) Isothermal titration calorimetry (ITC). Samples for use in ITC were diluted to appropriate concentrations in dialysate buffer (25 mM
(§4) Tris-HCl pH 8.0, 300 mM NaCl and 5 mM β-mercaptoethanol) saved from the ultrafiltration step. All samples were filtered with […] cutoff filters (Millipore) and extensively degassed with stirring prior to use.
(§5) Isothermal titration calorimetry was performed using MicroCal
(§6) Auto-iTC200 (MicroCal, INc., Northampton, MA) at 298K. […]
(§7) order to avoid heating effects due to differing concentration of DMSO in the injectant and protein solutions, 5% DMSO was added to the protein.
(§8) Software provided by Microcal was used for the curve fitting of the experimental data as well as for calculation of the thermodynamic data.
(§9) Specifically, all ITC data were corrected for the heat of dilution of the titrant by subtracting the excess heats at high molar ratios of ligands to galectins. Binding stoichiometry, enthalpy and equilibrium association constants were determined by fitting the corrected data to a bimolecular
A general note: In ITC the heat of successive injections is recorded.

Assay [2] deals with T2, galectin-3 (Homo sapiens, UniProt P17931).
T2 construct: CRD domain of galectin-3 (residues 113-250); 6xHis; made in house; host or cells: Escherichia coli BL21 (DE3)
T2 sequence (P17931 113-250): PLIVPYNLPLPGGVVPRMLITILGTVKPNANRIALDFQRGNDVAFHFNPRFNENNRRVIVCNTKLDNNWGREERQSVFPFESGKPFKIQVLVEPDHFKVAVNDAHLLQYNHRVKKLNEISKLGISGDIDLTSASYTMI
Kind of assay: Isothermal titration calorimetry (ITC), galectin-3. It is filed as binding. The procedure: as §1, §2, §3, §4, §5, §6, §7, §8, §9

For another assay, the target named is T3, galectin-7 (Homo sapiens, UniProt P47929).
T3 construct: (residues 1-136); 6xHis; made in house; host or cells: Escherichia coli BL21 (DE3)
T3 sequence (P47929 whole entry, the tested form may be a part): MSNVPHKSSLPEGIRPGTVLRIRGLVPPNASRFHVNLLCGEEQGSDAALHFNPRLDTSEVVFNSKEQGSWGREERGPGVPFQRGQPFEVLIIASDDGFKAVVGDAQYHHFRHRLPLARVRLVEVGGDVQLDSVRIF
Kind of assay: Isothermal titration calorimetry (ITC), galectin-7. It is filed as binding. As to the method: as §1, §2, §3, §4, §5, §6, §7, §8, §9

Broadly, the Kd is the free concentration of one partner at which half of the binding sites on the other are occupied at equilibrium, for simple one-to-one binding. Turning to “3′-(4-methoxy-2,3,5,6-tetrafluorobenzamido)-N-acetyl-lactosamine [L3]”, at galectin-3 [1], the Kd is 3.3 µM.

With `OC[C@H]1O[C@@H](S[C@@H]2O[C@H](CO)[C@H](O)[C@H](n3cc(-c4cccc(F)c4)nn3)[C@H]2O)[C@H](O)[C@@H](O)[C@H]1O` [TAZTDG, 3-deoxy-3-(4-[m-fluorophenyl]-1H-1,2,3-triazol-1-yl)-thio-digalactoside], the “-TΔS” value on galectin-1 (298 K) turned out to be 8.6 ± 0.51 kcal/mol; on galectin-3 [2] (ITC, 298 K), 6.4 ± 1.02 kcal/mol; on galectin-7 (298 K), 4.4 ± 0.04 kcal/mol. Also, the Kd on galectin-1 (298 K) came out at 3.24 ± 0.3 µM; on galectin-3 [2] (ITC, 298 K, galectin-3CRD), 0.84 ± 0.41 µM; at galectin-7 (298 K), 87 ± 3.21 µM. In addition, the “n (stoichiometry)” value at galectin-1 (298 K) came to 1.06 ± 0.01; on galectin-3 [2] (ITC, 298 K), 0.92 ± 0.08; at galectin-7 (298 K) it was 0.89 ± 0.01. Moreover, the ΔG on galectin-1 (298 K) was -7.5 ± 0.05 kcal/mol; at galectin-3 [2] (ITC, 298 K), -8.3 ± 0.25 kcal/mol; at galectin-7 (298 K) it was -5.5 ± 0.01 kcal/mol. Further, the ΔH on galectin-1 (298 K) was -16.1 ± 0.51 kcal/mol; on galectin-3 [2] (ITC, 298 K), -14.7 ± 0.99 kcal/mol; on galectin-7 (298 K) it was -10.0 ± 0.04 kcal/mol. Also, the Relative affinity at galectin-1 (298 K, relative to TDG = 1) is 20.7; at galectin-3 [2] (ITC, 298 K, relative to TDG = 1), 89.7; at galectin-7 (298 K, relative to TDG = 1), 6.6. In addition, the “ΔΔH(TAZTDG–TDG)” value at galectin-1 (galectin-1) was -4.5 kcal/mol; on galectin-3 [2] (ITC, galectin-3) it was -5.3 kcal/mol; on galectin-7 (galectin-7) it was -2.4 kcal/mol.

For the compound `OC[C@H]1O[C@@H](S[C@@H]2O[C@H](CO)[C@H](O)[C@H](n3cc(-c4cccc(F)c4)nn3)[C@H]2O)[C@H](O)[C@@H](n2cc(-c3cccc(F)c3)nn2)[C@H]1O` [TD139, 3,3’-deoxy-3,3’-bis-(4-[m-fluorophenyl]-1H-1,2,3-triazol-1-yl)-thio-digalactoside], on galectin-1 (298 K), the “-TΔS” value is given as 7.6 ± 0.43 kcal/mol, the “n (stoichiometry)” value came out at 0.96 ± 0.04 and the ΔH was -16.7 ± 0.40 kcal/mol. Further, at galectin-1 (galectin-1), the “binding enhancement compared with binding to TDG” value is ~ 300 fold and the “ΔΔH(TD139–TAZTDG)” value is -0.6 kcal/mol. Also, at galectin-3 [2] (ITC, 298 K), the “-TΔS” value was determined as 8.3 ± 0.90 kcal/mol, the “n (stoichiometry)” value was 0.96 ± 0.01, the ΔG was -9.9 ± 0.37 kcal/mol and the ΔH was -18.2 ± 0.82 kcal/mol. In addition, on galectin-3 [2] (ITC, galectin-3), the “binding enhancement compared with TDG” value is reported as ~ 1000 fold, the “change in binding free energy ΔΔG(TD139-TDG)” value is -4.3 kcal/mol, the “enthalpy change ΔΔH(TD139-TDG)” value is -8.8 kcal/mol and the “entropy change –TΔΔS(TD139-TDG)” value is 4.6 kcal/mol. For the same compound, the “ΔΔH(TD139–TAZTDG)” value on galectin-3 [2] (ITC, galectin-3) was -3.5 kcal/mol. Moreover, the “increase in binding affinity compared with L3” value at galectin-3 [2] (galectin-3, versus literature Kd of L3) is given as 50 fold. Moreover, on galectin-7 (298 K), the “-TΔS” value worked out at 3.2 ± 0.09 kcal/mol, the Kd came to 38 ± 0.71 µM, the “n (stoichiometry)” value worked out at 0.99 ± 0.10 and the ΔG was -6.1 ± 0.06 kcal/mol. For the same compound, at galectin-7 (galectin-7), the “difference in binding free energy ΔΔG(TD139-TDG)” value is -1.7 kcal/mol, the “increase in affinity compared with TDG binding” value is reported as 15 fold and the “ΔΔH(TD139–TAZTDG)” value was 0.7 kcal/mol.

As to `OC[C@H]1O[C@@H](S[C@@H]2O[C@H](CO)[C@H](O)[C@H](O)[C@H]2O)[C@H](O)[C@@H](O)[C@H]1O` [TDG, thio-digalactoside], at galectin-1 (298 K), the “-TΔS” value came to 5.9 ± 0.27 kcal/mol, the “n (stoichiometry)” value was 1.02 ± 0.10 and the ΔH was -11.6 ± 0.26 kcal/mol. For the same compound, at galectin-3 [2] (ITC, 298 K), the “-TΔS” value turned out to be 3.7 ± 0.48 kcal/mol, the “n (stoichiometry)” value is 1.02 ± 0.05 and the ΔH was -9.4 ± 0.48 kcal/mol. On galectin-7 (298 K), the “-TΔS” value is 3.2 ± 0.55 kcal/mol, the “n (stoichiometry)” value came out at 0.94 ± 0.02, the ΔG is -4.4 ± 0.06 kcal/mol and the ΔH was -7.6 ± 0.55 kcal/mol.
